Source: patent US20070049564A1 (Wyeth, priority 2005, published 2007)
In brackets after ≈: the same amount, converted by molar mass. Read-outs that look alike come from different tables or passages of the source.

Tests used:
[1] = test system: E. coli; assay: Range of MIC for E. coli strains; conditions: Escherichia coli
[2] = test system: S. aureus GC 1131; assay: MIC, broth microdilution; conditions: Staphylococcus aureus
[3] = test system: S. aureus GC 6469; assay: MIC, broth microdilution; conditions: Staphylococcus aureus
[4] = test system: E. coli GC 2272; assay: MIC, broth microdilution; conditions: Escherichia coli
[5] = test system: E. coli GC 2233; assay: MIC, broth microdilution; conditions: Escherichia coli
[6] = test system: S. aureus GC 6466; assay: MIC, broth microdilution; conditions: Staphylococcus aureus
[7] = test system: S. aureus GC 1079; assay: MIC, broth microdilution; conditions: Staphylococcus aureus
[8] = test system: E. faecium GC 2243; assay: MIC, broth microdilution; conditions: Enterococcus faecium
[9] = test system: c. albicans GC 3066; assay: MIC, broth microdilution
[10] = test system: E. coli GC 2234; assay: MIC, broth microdilution; conditions: Escherichia coli
[11] = test system: S. pyogenes GC 4563; assay: MIC, broth microdilution; conditions: Streptococcus pyogenes
[12] = test system: E. coli GC 2236; assay: MIC, broth microdilution; conditions: Escherichia coli
[13] = test system: S. pneumoniae+ GC 4465; assay: MIC, broth microdilution; conditions: Streptococcus pneumoniae
[14] = test system: E. coli GC 1073; assay: MIC, broth microdilution; conditions: Escherichia coli
[15] = test system: S. aureus GC 4536; assay: MIC, broth microdilution; conditions: Staphylococcus aureus
[16] = test system: Staph.; assay: Range of MIC for Staph. strains, including MRSA; conditions: Staphylococcus aureus
[17] = test system: S. epidermidis GC 4935; assay: MIC, broth microdilution; conditions: Staphylococcus epidermidis
[18] = test system: E. faecalis GC 4555; assay: MIC, broth microdilution; conditions: Enterococcus faecalis
[19] = test system: E. coli GC 6465; assay: MIC, broth microdilution; conditions: Escherichia coli
[20] = test system: E. faecalis GC 2265; assay: MIC, broth microdilution; conditions: Enterococcus faecalis

MIC ([1]; 20 h, read-out: Range of MIC, E. coli (Mouse Serum)): 0.25 to 2 µg/mL (≈ 0.305 to 2.44 µM) | MIC ([1]; read-out: Minimum inhibitory concentration (MIC), E. coli (Human Serum)): > 64 µg/mL | MIC ([1]; read-out: Minimum inhibitory concentration (MIC), E. coli (water)): > 64 µg/mL | MIC ([1]; read-out: Range of MIC, E. coli (Water)): > 64 µg/mL | MIC ([2]; GC1131, read-out: MINIMAL INHIBITORY CONCENTRATION MIC, pre-incubated in Human Serum): 16 µg/mL (≈ 19.5 µM) | MIC ([2]; GC1131, read-out: MINIMAL INHIBITORY CONCENTRATION MIC, pre-incubated in Mouse Serum): 1 µg/mL (≈ 1.22 µM) | MIC ([2]; GC1131, read-out: MINIMAL INHIBITORY CONCENTRATION MIC, pre-incubated in Water): 64 µg/mL (≈ 78.1 µM) | MIC ([3]; GC6469, read-out: MINIMAL INHIBITORY CONCENTRATION MIC, pre-incubated in Human Serum): 32 µg/mL (≈ 39 µM) | MIC ([3]; GC6469, read-out: MINIMAL INHIBITORY CONCENTRATION MIC, pre-incubated in Mouse Serum): 1 µg/mL (≈ 1.22 µM) | MIC ([3]; GC6469, read-out: MINIMAL INHIBITORY CONCENTRATION MIC, pre-incubated in Water): > 64 µg/mL | MIC ([4]; GC2272, read-out: MINIMAL INHIBITORY CONCENTRATION MIC, pre-incubated in Human Serum): > 64 µg/mL | MIC ([4]; GC2272, read-out: MINIMAL INHIBITORY CONCENTRATION MIC, pre-incubated in Mouse Serum): 0.5 µg/mL (≈ 0.61 µM) | MIC ([4]; GC2272, read-out: MINIMAL INHIBITORY CONCENTRATION MIC, pre-incubated in Water): > 64 µg/mL | MIC ([5]; GC2233, read-out: MINIMAL INHIBITORY CONCENTRATION MIC, pre-incubated in Human Serum): > 64 µg/mL | MIC ([5]; GC2233, read-out: MINIMAL INHIBITORY CONCENTRATION MIC, pre-incubated in Mouse Serum): 0.5 µg/mL (≈ 0.61 µM) | MIC ([5]; GC2233, read-out: MINIMAL INHIBITORY CONCENTRATION MIC, pre-incubated in Water): > 64 µg/mL | MIC ([6]; GC6466, read-out: MINIMAL INHIBITORY CONCENTRATION MIC, pre-incubated in Human Serum): 16 µg/mL (≈ 19.5 µM) | MIC ([6]; GC6466, read-out: MINIMAL INHIBITORY CONCENTRATION MIC, pre-incubated in Mouse Serum): 0.5 µg/mL (≈ 0.61 µM) | MIC ([6]; GC6466, read-out: MINIMAL INHIBITORY CONCENTRATION MIC, pre-incubated in Water): 64 µg/mL (≈ 78.1 µM) | MIC ([7]; GC1079, read-out: MINIMAL INHIBITORY CONCENTRATION MIC, pre-incubated in Human Serum): 32 µg/mL (≈ 39 µM) | MIC ([7]; GC1079, read-out: MINIMAL INHIBITORY CONCENTRATION MIC, pre-incubated in Mouse Serum): 1 µg/mL (≈ 1.22 µM) | MIC ([7]; GC1079, read-out: MINIMAL INHIBITORY CONCENTRATION MIC, pre-incubated in Water): 64 µg/mL (≈ 78.1 µM) | MIC ([8]; GC2243, read-out: MINIMAL INHIBITORY CONCENTRATION MIC, pre-incubated in Human Serum): 0.25 µg/mL (≈ 0.305 µM) | MIC ([8]; GC2243, read-out: MINIMAL INHIBITORY CONCENTRATION MIC, pre-incubated in Mouse Serum): 0.12 µg/mL (≈ 0.146 µM) | MIC ([8]; GC2243, read-out: MINIMAL INHIBITORY CONCENTRATION MIC, pre-incubated in Water): 0.25 µg/mL (≈ 0.305 µM) | MIC ([9]; Candida albicans, GC3066, read-out: MINIMAL INHIBITORY CONCENTRATION MIC): > 64 µg/mL | MINIMAL INHIBITORY CONCENTRATION MIC ([9]; pre-incubated in Human Serum): >64 UG/ML | MINIMAL INHIBITORY CONCENTRATION MIC ([9]; pre-incubated in Mouse Serum): >64 UG/ML | MIC ([10]; GC2234, read-out: MINIMAL INHIBITORY CONCENTRATION MIC, pre-incubated in Human Serum): > 64 µg/mL | MIC ([10]; GC2234, read-out: MINIMAL INHIBITORY CONCENTRATION MIC, pre-incubated in Mouse Serum): 0.25 µg/mL (≈ 0.305 µM) | MIC ([10]; GC2234, read-out: MINIMAL INHIBITORY CONCENTRATION MIC, pre-incubated in Water): > 64 µg/mL | MIC ([11]; GC4563, read-out: MINIMAL INHIBITORY CONCENTRATION MIC, pre-incubated in Human Serum): < 0.06 µg/mL | MIC ([11]; GC4563, read-out: MINIMAL INHIBITORY CONCENTRATION MIC, pre-incubated in Mouse Serum): < 0.06 µg/mL | MIC ([11]; GC4563, read-out: MINIMAL INHIBITORY CONCENTRATION MIC, pre-incubated in Water): < 0.06 µg/mL | MIC ([12]; GC2236, read-out: MINIMAL INHIBITORY CONCENTRATION MIC, pre-incubated in Human Serum): > 64 µg/mL | MIC ([12]; GC2236, read-out: MINIMAL INHIBITORY CONCENTRATION MIC, pre-incubated in Mouse Serum): 0.5 µg/mL (≈ 0.61 µM) | MIC ([12]; GC2236, read-out: MINIMAL INHIBITORY CONCENTRATION MIC, pre-incubated in Water): > 64 µg/mL | MIC ([13]; read-out: MINIMAL INHIBITORY CONCENTRATION MIC, pre-incubated in Human Serum): 2 µg/mL (≈ 2.44 µM) | MIC ([13]; read-out: MINIMAL INHIBITORY CONCENTRATION MIC, pre-incubated in Mouse Serum): 2 µg/mL (≈ 2.44 µM) | MIC ([13]; read-out: MINIMAL INHIBITORY CONCENTRATION MIC, pre-incubated in Water): 2 µg/mL (≈ 2.44 µM) | MIC ([14]; GC1073, read-out: MINIMAL INHIBITORY CONCENTRATION MIC, pre-incubated in Human Serum): > 64 µg/mL | MIC ([14]; GC1073, read-out: MINIMAL INHIBITORY CONCENTRATION MIC, pre-incubated in Mouse Serum): 0.5 µg/mL (≈ 0.61 µM) | MIC ([14]; GC1073, read-out: MINIMAL INHIBITORY CONCENTRATION MIC, pre-incubated in Water): > 64 µg/mL | MIC ([15]; GC4536, read-out: MINIMAL INHIBITORY CONCENTRATION MIC, pre-incubated in Human Serum): 16 µg/mL (≈ 19.5 µM) | MIC ([15]; GC4536, read-out: MINIMAL INHIBITORY CONCENTRATION MIC, pre-incubated in Mouse Serum): 1 µg/mL (≈ 1.22 µM) | MIC ([15]; GC4536, read-out: MINIMAL INHIBITORY CONCENTRATION MIC, pre-incubated in Water): 32 µg/mL (≈ 39 µM) | MIC ([16]; MRSA, read-out: Range of MIC, Staph (Mouse Serum)): 0.5 to 2 µg/mL (≈ 0.61 to 2.44 µM) | MIC ([16]; read-out: Minimum inhibitory concentration (MIC), Staph (Human Serum)): 4 to 64 µg/mL (≈ 4.88 to 78.1 µM) | MIC ([17]; GC4935, read-out: MINIMAL INHIBITORY CONCENTRATION MIC, pre-incubated in Human Serum): 4 µg/mL (≈ 4.88 µM) | MIC ([17]; GC4935, read-out: MINIMAL INHIBITORY CONCENTRATION MIC, pre-incubated in Mouse Serum): 2 µg/mL (≈ 2.44 µM) | MIC ([17]; GC4935, read-out: MINIMAL INHIBITORY CONCENTRATION MIC, pre-incubated in Water): 32 µg/mL (≈ 39 µM) | MIC ([18]; GC4555, read-out: MINIMAL INHIBITORY CONCENTRATION MIC, pre-incubated in Human Serum): 8 µg/mL (≈ 9.76 µM) | MIC ([18]; GC4555, read-out: MINIMAL INHIBITORY CONCENTRATION MIC, pre-incubated in Mouse Serum): 0.5 µg/mL (≈ 0.61 µM) | MIC ([18]; GC4555, read-out: MINIMAL INHIBITORY CONCENTRATION MIC, pre-incubated in Water): 32 µg/mL (≈ 39 µM) | MIC ([19]; GC6465, read-out: MINIMAL INHIBITORY CONCENTRATION MIC, pre-incubated in Human Serum): > 64 µg/mL | MIC ([19]; GC6465, read-out: MINIMAL INHIBITORY CONCENTRATION MIC, pre-incubated in Mouse Serum): 2 µg/mL (≈ 2.44 µM) | MIC ([19]; GC6465, read-out: MINIMAL INHIBITORY CONCENTRATION MIC, pre-incubated in Water): > 64 µg/mL | MIC ([20]; GC2265, read-out: MINIMAL INHIBITORY CONCENTRATION MIC, pre-incubated in Human Serum): 8 µg/mL (≈ 9.76 µM) | MIC ([20]; GC2265, read-out: MINIMAL INHIBITORY CONCENTRATION MIC, pre-incubated in Mouse Serum): 0.5 µg/mL (≈ 0.61 µM) | MIC ([20]; GC2265, read-out: MINIMAL INHIBITORY CONCENTRATION MIC, pre-incubated in Water): 32 µg/mL (≈ 39 µM)
Compound: CN(C)c1cc(NC(=O)CN(C(=O)OCOC(=O)c2ccc(C(C)(C)C)cc2)C(C)(C)C)c(O)c2c1C[C@H]1C[C@H]3[C@H](N(C)C)C(O)=C(C(N)=O)C(=O)[C@@]3(O)C(O)=C1C2=O [Example 43, ({[(2-{[(5aR,6aS,7S,10aS)-9-(aminocarbonyl)-4,7-bis(dimethylamino)-1,8,10a,11-tetrahydroxy-10,12-dioxo-5,5a,6,6a,7,10,10a,12-octahydrotetracen-2-yl]amino}-2-oxoethyl)(tert-butyl)amino]carbonyl}oxy)methyl 4-tert-butylbenzoate]
